Assay results: patent publication US10556008B2, “Methods of treatment of keloid using an anti-VEGF agent” (priority 2012, dated 2020)
Entries after “also recorded” stand apart in the source; their conditions may differ.

Experiments:
[1] = commercially available topical steroids (skin); cited from earlier work
[2] = test system: recurrent pterygium; conditions: bevacizumab not as part of the combination therapy; temporarily = e.g. 6 months or less; cited from earlier work
[3] = test system: pterygium recurrence; experiment: Treatment of pterygium recurrence after pterygiectomy with bevacizumab, with or without combination therapy (Patients 1-5); type: in vivo, human; conditions: for Time without recurrence of pterygium: steroid and NSAID; for No pterygium regrowth observed as of (time after surgery): after third surgical removal and conjunctival grafting; for No pterygium regrowth observed as of (time after surgery) / No regrowth of pterygium observed as of (time after surgery): bevacizumab injections, NSAID eye drops; for No regrowth of pterygium observed as of (time after surgery): steroid eye drops
Text: A topical anesthetic (proparacaine 0.5% eye drops or Alcaine manufactured by Alcon Laboratories Inc.) was applied to the eye following recent pterygiectomy (from ˜5 days to 2 months following surgery). The patients were examined to identify vascular growth on eye conjunctiva. […] If blood was present (indicating presence of blood vessel), the syringe needle was withdrawn. […] If bleeding occurred (e.g., in the form of subconjunctival or subcutaneous hematoma), tamponade with Q-Tips® was performed until bleeding stopped; then injection was resumed.
Anti-inflammatory steroid drops (prednisolone acetate 1% (Allergan)) were given for 6 weeks with frequency range from once a day to 4 times a day (every 6 hours) to every hour (24 drops/day). NSAID eye drops (Diclofenac 0.1% (Bausch and Lomb)) drops (1 mg/mL to 100 mg/mL) were given multiple times, 4 times a day every 6 hours for 3 to 6 months.
Patients were followed up to monitor for appearance of new blood vessel growth in the eye.
Five patients (Patients 1-5) underwent surgery to remove primary pterygium (pterygiectomy) from the cornea of one or both eyes followed by conjunctival grafting were treated as described below.

Compound | Potency [1] | Effect on recurrent pterygium reported in the literature [2] | Time without recurrence of pterygium ([3]; FIG. 2 (Patient 2), combination therapy of bevacizumab) [months] | Time without recurrence of pterygium ([3]; FIG. 4 (Patient 4), combination therapy of bevacizumab) [months] | Time without recurrence of pterygium ([3]; FIG. 5 (Patient 5), combination therapy of bevacizumab) [months] | Time without recurrence of pterygium ([3]; FIGS. 3A, 3B (Patient 3), combination therapy of bevacizumab) [months] | Pterygium Recurrence ([3]; Patient 1, Right eye, bevacizumab + steroid (injected and/or eye drops) + topical NSAID eye drops) | No pterygium regrowth observed as of (time after surgery) ([3]; Patient 1 right eye, bevacizumab+Kenalog injection) | Pterygium Recurrence ([3]; Patient 2, Left eye, bevacizumab + steroid (injected and/or eye drops) + topical NSAID eye drops) | No pterygium regrowth observed as of (time after surgery) ([3]; Patient 2 left eye, bevacizumab and Kenalog injections) | Pterygium recurrence after bevacizumab injection alone ([3]; Patient 2 left eye, single bevacizumab injection on Day 17 after second surgical removal, no steroid or NSAID) | Pterygium Recurrence ([3]; Patient 3 (number not printed in row), Left Eye, bevacizumab + steroid (Kenalog injection), no NSAID) | Pterygium Recurrence ([3]; Patient 3 (number not printed in row), Right Eye, bevacizumab + steroid + topical NSAID eye drops) | No regrowth of pterygium observed as of (time after surgery) ([3]; Patient 3 right eye, after surgical removal and amniotic membrane grafting) | Pterygium Recurrence ([3]; Patient 4, Right Eye, bevacizumab + steroid + topical NSAID eye drops) | No regrowth of pterygium observed as of (time after surgery) ([3]; Patient 4 right eye, after first surgical procedure, bevacizumab and Kenalog injections) | Pterygium Recurrence ([3]; Patient 5, Right Eye, bevacizumab + steroid + topical NSAID eye drops) | Pterygium regrowth (overall conclusion) ([3]; combination therapy of bevacizumab, anti-inflammatory steroid (injected or topical) and topical NSAID, Patients 1-5) | Combination therapy compared with bevacizumab alone ([3]; combination therapy of bevacizumab, anti-inflammatory steroid and topical NSAID vs bevacizumab alone)
CCCCC(=O)O[C@]1(C(=O)CO)[C@@H](C)C[C@H]2[C@@H]3CCC4=CC(=O)C=C[C@]4(C)[C@@]3(F)[C@@H](O)C[C@@]21C [Betamethasone valerate] | Medium-Low |  |  |  |  |  |  |  |  |  |  |  |  |  |  |  |  |  | 
Bevacizumab: 149-Kd full length humanized anti-vascular endothelial growth factor (anti-VEGF) antibody |  | not effective or only temporarily effective; also recorded: temporary treatment | > 8 | > 9 | > 3 | > 6 | No | about 520 days | No | about 240 days | further recurrence of the pterygium | completely regrew and Yes | No | about 130 days | No | about 250 days | No | inhibited | superior
CC(=O)OCC(=O)[C@@]12OC3(CCCC3)O[C@@H]1C[C@H]1[C@@H]3CCC4=CC(=O)C=C[C@]4(C)[C@@]3(F)[C@@H](O)C[C@@]12C [Amcinonide] | High |  |  |  |  |  |  |  |  |  |  |  |  |  |  |  |  |  | 
